Laboratory results published in the supplement of paper PMC10307832.

What was measured:
Test in all cases: relative viability (nuclei count vs DMSO), 5 days (fraction); higher = more cells survive
AGI-6780 + Alpelisib = compound: O=C(Nc1cccc(C(F)(F)F)c1)Nc1cc(S(=O)(=O)NC2CC2)ccc1-c1ccsc1 [AGI-6780] + Cc1nc(NC(=O)N2CCC[C@H]2C(N)=O)sc1-c1ccnc(C(C)(C)C(F)(F)F)c1 [Alpelisib] (partner 2 µM)
Method in brief: (§1)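 Relative viability was taken as the ratio of nuclei in treated wells to nuclei in vehicle wells. Lung cancer cell lines in 1536-well plates received compounds by pin tool one day after seeding, either one drug alone or a fixed anchor-drug dose plus five library-drug doses (not always all listed) in √10 steps. Nuclei were counted on 4× images after 5 days of treatment, and values are medians of duplicate plates.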

AGI-6780 + OSI-027 = compound: O=C(Nc1cccc(C(F)(F)F)c1)Nc1cc(S(=O)(=O)NC2CC2)ccc1-c1ccsc1 [AGI-6780] + COc1cccc2cc(-c3nc([C@H]4CC[C@H](C(=O)O)CC4)n4ncnc(N)c34)[nH]c12 [OSI-027] (partner 0.5 µM)
Method in brief: as §1

AGI-6780 + Lapatinib = compound: O=C(Nc1cccc(C(F)(F)F)c1)Nc1cc(S(=O)(=O)NC2CC2)ccc1-c1ccsc1 [AGI-6780] + CS(=O)(=O)CCNCc1ccc(-c2ccc3ncnc(Nc4ccc(OCc5cccc(F)c5)c(Cl)c4)c3c2)o1 [Lapatinib] (partner 2 µM)
Method in brief: as §1

AGI-6780 + Linsitinib = compound: O=C(Nc1cccc(C(F)(F)F)c1)Nc1cc(S(=O)(=O)NC2CC2)ccc1-c1ccsc1 [AGI-6780] + C[C@]1(O)C[C@@H](c2nc(-c3ccc4ccc(-c5ccccc5)nc4c3)c3c(N)nccn32)C1 [Linsitinib] (partner 1 µM)
Method in brief: as §1

Cell Line	relative viability (AGI-6780 + Alpelisib; first compound 0.08 µM)	relative viability (AGI-6780 + Alpelisib; first compound 0.253 µM)	relative viability (AGI-6780 + Alpelisib; first compound 0.8 µM)	relative viability (AGI-6780 + Alpelisib; first compound 2.53 µM)	relative viability (AGI-6780 + Alpelisib; first compound 8 µM)	relative viability (AGI-6780 + OSI-027; first compound 0.08 µM)	relative viability (AGI-6780 + OSI-027; first compound 0.253 µM)	relative viability (AGI-6780 + OSI-027; first compound 0.8 µM)	relative viability (AGI-6780 + OSI-027; first compound 2.53 µM)	relative viability (AGI-6780 + OSI-027; first compound 8 µM)	relative viability (AGI-6780 + Lapatinib; first compound 0.08 µM)	relative viability (AGI-6780 + Lapatinib; first compound 0.253 µM)	relative viability (AGI-6780 + Lapatinib; first compound 0.8 µM)	relative viability (AGI-6780 + Lapatinib; first compound 2.53 µM)	relative viability (AGI-6780 + Lapatinib; first compound 8 µM)	relative viability (AGI-6780 + Linsitinib; first compound 0.08 µM)	relative viability (AGI-6780 + Linsitinib; first compound 0.253 µM)	relative viability (AGI-6780 + Linsitinib; first compound 0.8 µM)	relative viability (AGI-6780 + Linsitinib; first compound 2.53 µM)	relative viability (AGI-6780 + Linsitinib; first compound 8 µM)
201T	1.11	1.05	0.991	0.941	1.01	0.713	0.694	0.723	0.325	0.753	1.03	1.01	1.02	1.01	1.02	1.06	1.06	1.02	0.993	1.01
A549	0.797	0.662	0.76	0.593	0.747						0.999	0.968	1.14	0.927	1.06	0.585	0.594	0.701	0.452	0.545
A-427	1.06	1.02	1.09	0.902	1.06	0.477	0.458	0.507	0.384	0.509	1.09	0.997	1.01	0.945	0.929	1.09	1.07	1.1	1.03	1.12
ABC-1	1.14	0.918	1.08	0.829	1.24	0.469	0.524	0.688	0.55	0.595	1.26	1.2	1.27	1.16	1.27	0.756	0.501	0.835	0.736	0.601
BEN	1.04	0.966	1.36		0.914	0.311	0.298	0.321	0.28	0.304	0.569	0.703	0.91		0.637	0.894	0.845	1.07		0.971
CAL-12T	1.33	1.15	1.29	1.23	1.13	0.748	0.76	0.693	0.428	0.519		0.582	0.876	0.572	0.619	0.771	0.726	0.72	1	0.892
COR-L23	0.757	0.688	0.67	0.747	0.699	0.743	0.77	0.705	0.527	0.784	0.905	0.919	0.982	1.31	0.997	0.969	0.766	0.77	1.08	0.891
COR-L 105	1.19	1.02	0.986	0.863	1.04	0.783	0.669	0.719	0.582	0.72	0.358	0.357	0.437	0.343	0.324	0.989	0.946	0.941	0.808	0.952
Calu-6	1.01	0.977	0.97	0.945	1.04						0.989	1.01	1.22	1.14	0.974	0.984	1.02	0.897	0.852	0.955
ChaGo-K-1						0.521	0.613	0.577	0.42	0.547										
EKVX	0.96	0.839	0.995	0.755	0.898	0.663	0.665	0.721	0.649	0.716	0.234	0.19	0.217	0.192	0.216	1.09	1.03	0.966	1.05	1.04
EMC-BAC-2	0.797	0.73	0.756	0.67	0.778	0.383	0.384	0.338	0.301	0.427	0.919	0.929	0.878	0.725	0.94	0.845	0.82	0.835	0.782	0.822
EPLC-272H	0.88	0.972	0.927	0.785	0.864		0.282	0.247	0.245	0.293	0.921	0.949	0.881	0.747	1.11	1.28	1.43	1.21	1.03	1.11
H3255	0.687	0.62	0.728	0.468	0.754	0.667	0.55	0.551	0.523	0.584	0.222	0.275	0.248	0.204	0.263	1	0.947	0.96	0.968	0.969
HARA	0.925	0.834	0.585	0.801	0.974	0.573	0.594	0.339	0.197	0.514	0.872	0.825	0.613	0.681	0.707	0.921	0.949	0.841	0.971	0.985
HCC-15	0.883	0.91	0.939	0.712	0.919	0.743	0.763	0.783	0.458	0.725	0.896	0.824	0.971	0.83	0.856	0.897	0.867	0.941	0.777	0.821
HCC-44	0.874	0.755	0.826	0.626	0.817	0.628	0.719	0.477	0.47	0.594	0.989	1	1.03	0.96	1.04	0.714	0.73	0.693	0.622	0.597
HCC-78	0.366	0.331	0.462	0.32	0.361		0.37	0.431	0.364	0.355	0.66	0.702	0.821	0.485	0.992	0.592	0.491	0.587	0.561	0.537
